The values that follow come from patent US20240316079A1, “USE OF AKR1C3-ACTIVATED COMPOUND” (OBI PHARMA, INC., priority 2021, published 2024).

SMILES strings stand for the structures. Read-outs that look alike come from different tables or passages of the source.

One data set concerns the target T1, recombinant human AKR1C3 (Homo sapiens, UniProt P42330).
T1 construct: purchased Abcam (Cambridge, MA)
T1 sequence (P42330 1-323): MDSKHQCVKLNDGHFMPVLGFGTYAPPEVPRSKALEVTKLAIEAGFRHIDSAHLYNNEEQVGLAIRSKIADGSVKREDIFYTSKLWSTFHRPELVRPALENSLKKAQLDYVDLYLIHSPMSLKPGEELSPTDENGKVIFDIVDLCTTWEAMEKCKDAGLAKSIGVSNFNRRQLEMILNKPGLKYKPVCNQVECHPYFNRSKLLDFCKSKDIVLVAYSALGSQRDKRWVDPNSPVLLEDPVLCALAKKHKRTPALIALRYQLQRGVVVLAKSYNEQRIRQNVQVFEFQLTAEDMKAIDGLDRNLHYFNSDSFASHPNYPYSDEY
In words: AKR1C3-dependent activation of 3424 (2660 production, LC-MS/MS). In kind it is biochemical. The note with it: incubation with AKR1C3, n = 3, mean ± SD. How it is done:
The reaction was incubated at 25° C. and terminated at various time points by adding acetonitrile and methanol (at a ratio of 9 to 1) and subjected for LC-MS/MS analysis. For enzyme kinetic analysis, the activity was determined with a SpectraMax M2^e spectrophotometer (Molecular Devices, LLC, San Jose, CA) by measuring the decrease in absorbance of the NADPH at 340 nm (E=6270 M^−1 cm^−1). After the initiation of the reaction by addition of substrates, the reactions were monitored at 30 s intervals at 25° C. The non-substrate reaction rate was also monitored as background and its slope was used to determine the initial velocity of the reaction. The kinetic data reported were the average of triplicate measurements. For AKR1C3-mediated 3424 metabolism, LC/MS/MS was performed using a Sciex API-4000 Qtrap (ABSciex, LLC, Framingham, MA) mass spectrometer coupled to an Agilent 1200 HPLC system (Agilent Technologies, Santa Clara, CA). […] The column oven temperature was 40° C. and the sample injection volume was 2 μL. The mass spectra were obtained in positive MRM mode. In positive ion mode, the ion spray voltage was set at 4500 V, declustering potential at 80 V, collision energy at 20 V, source temperature at 350° C., curtain gas at 10 psi and the source gas 1 and 2 both at 60 psi. […] For 2660 analysis, normal phase liquid chromatographic separation was performed with Waters Atlantis HILIC Silica column (2.1 mm×100 mm, 3 μm, Waters Corp., Milford, MA) in a total run time of 9 min using a flow rate of 0.3 mL/min. The mobile phase A consisted of 1 mM ammonium formate in water and mobile phase B using ACN. […] The column oven temperature was 40° C. and the sample injection volume was 2 μL. The mass spectra were obtained in negative MRM mode. In negative ion mode, the ion spray voltage was set at −4500 V, declustering potential at −60 V, collision energy at −30 V, source temperature at 350° C., curtain gas at 10 psi and the source gas 1 and 2 both at 60 psi. […] The peak area ratio for each MRM transition (peak area of analyte/peak area of analyte-IS) of calibration standards and samples were used for quantitative analysis using Analyst 1.6 software (ABSciex, Framingham, MA).

The next data set deals with T2, recombinant human AKR1C1 (Homo sapiens, UniProt Q04828).
T2 construct: purchased Sigma
T2 sequence (Q04828 whole entry): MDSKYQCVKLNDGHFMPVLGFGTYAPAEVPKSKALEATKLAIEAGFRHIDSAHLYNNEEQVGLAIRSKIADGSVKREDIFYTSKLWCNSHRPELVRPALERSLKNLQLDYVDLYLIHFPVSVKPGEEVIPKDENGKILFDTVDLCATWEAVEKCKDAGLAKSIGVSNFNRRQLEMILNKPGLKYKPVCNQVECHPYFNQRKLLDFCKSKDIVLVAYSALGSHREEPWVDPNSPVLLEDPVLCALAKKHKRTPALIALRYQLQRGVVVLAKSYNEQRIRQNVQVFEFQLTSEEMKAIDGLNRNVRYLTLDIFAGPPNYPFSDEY
In words: Incubation of 3424 with AKR1C1 (2660 production, LC-MS/MS). In kind it is biochemical.

Another data set relates to SNU-475. The data set is described as follows: In vitro proliferation assay, liver cancer cell line SNU-475. The note with it: Homo sapiens, 96 hours of drug exposure, AKR1C3 protein high, read-out: 3424 IC50. In kind it is cell-based. As to the method:
(§1) IC50 was calculated as described above.

The subject of another data set is SK-HEP-1. The data set is described as follows: In vitro proliferation assay, liver cancer cell line SK-HEP-1. It counts as cell-based. The note with it: Homo sapiens, SK-HEP1, 96 hours of drug exposure, AKR1C3 protein Low, read-out: 3424 IC50. How it is done: as §1
For data set [1], the system named is H460 subcutaneous xenograft. It counts as in vivo, mice. The note with it: 1 week off, Q7D × 2. As to the method: (§2) In vivo anti-tumor activity of 3424 was evaluated using GFP-expressing cancer cell lines in an orthotopic liver cancer model (HepG2) and a subcutaneous lung cancer model (H460) CDX models at AntiCancer, Inc (Beijing, China). Female athymic nude mice (6 weeks; BALB/c-nu, Beijing HFK Bioscience Co., Ltd., Beijing, China) were used in the studies. Each mouse was implanted with a HepG2-GFP tumor chunk (˜1 mm^3 in diameter) in the right lobe of the liver for tumor development or inoculated subcutaneously with H460-GFP tumor chunk (˜1 mm^3 in diameter). About 3-10 days later, whole mouse body scan was performed using FluorVivo Model-100 fluorescence imager (INDEC Biosystems, Inc., Los Altos, CA). Mice with similar fluorescent areas were selected and randomly grouped. Both cell lines expressed high level of AKR1C3. Prodrug 3424 was dosed intravenously (IV) at 1.25, 2.5 mg/kg or 5 mg/kg Q7D×2 for the HepG2 orthotopic model or at 0.625, 1.25 or 2.5 mg/kg for the H460 xenograft model with a regimen of Q7D×2, 1 week off, then Q7D×2 again. Sorafenib was used as the positive control in the HepG2 model and was dosed orally at 30 mg/kg with a regimen of QD×5×7 cycles. Taxol was used as the positive control in the H460 model and was administered at 15 mg/kg IV with a regimen of BIW×4. During the experiments, mice were observed daily and body weight was measured twice a week. Tumor burden was monitored twice a week either by caliper measurement (H460) or FluorVivo fluorescence imager (H460-GFP and HepG2-GFP).

Data set [2] concerns HepG2 orthotopic xenograft. It counts as in vivo, mice. The note with it: for TGI: Day 34. How it is done:
as §2

The test system of another data set is A498 xenograft. As to the method:
(§3) Death and observed clinical signs were recorded on the basis of the numbers of animals within each subset.

The subject of the next data set is SNU-16 xenograft. As to the method:
as §3

In another data set the test system is H460 cells. The data set is described as follows: Cytotoxicity in H460 cells in the absence or presence of AKR1C3 inhibitor 3021. The note with it: Homo sapiens, NCI-H460, 2 h, read-out: IC50 (cytotoxicity).
Setting [3] is: 3424 2.5 mg/kg weekly IV for 4 doses.

Method for H460 cells: Exponentially growing cells were seeded 24 hours before the addition of test compounds. After addition of test compounds, the plates were incubated for the indicated hours at 37° C. in a standard tissue culture incubator. At the end of the experiment, the viable cells were detected using either a CellTiter Glo (CTG) assay kit or AlamarBlue^(28,29). […] For 3021 experiments, cells were pretreated with 3 μM of 3021 for 2 h prior to compound treatment under air. IC50 was calculated as described above.

For `C[C@H](OP(=O)(N1CC1)N1CC1)c1ccc([N+](=O)[O-])c(Oc2cccc(C(=O)N(C)C)c2)c1` [Compound 3424, (S)-1-(3-(3-N,N-dimethylaminocarbonyl)phenoxyl-4-mtrophenyl)-1-ethyl-N,N′-bis(ethylene)phosphoramidate], the “2660 Concentration” value is 10.71 ± 0.53 µM at recombinant human AKR1C3 (3424 concentration 10 μM); 14.77 ± 1.44 µM on recombinant human AKR1C3 (3424 concentration 20 μM); 33.96 ± 1.90 µM at recombinant human AKR1C3 (3424 concentration 30 μM); 34.30 ± 6.63 µM on recombinant human AKR1C3 (3424 concentration 40 μM); 34.59 ± 7.44 µM on recombinant human AKR1C3 (3424 concentration 50 μM); “BQL” on recombinant human AKR1C1 (3424 concentration 50 μM, incubation with AKR1C1, BQL: below quantification limit (0.25 ng/mL)). For the same molecule, the “metabolism by AKR1C1” value on recombinant human AKR1C1 is “not metabolized”. Also, the IC50 in the data set on SNU-475 was 15 nM; with SK-HEP-1, over 1000 nM; in the data set on H460 cells it was 4 nM. Moreover, the TGI was 60.2% in data set [1] (3424 0.625 mg/kg i.v. Q7D × 2); 67.2% in data set [1] (3424 1.25 mg/kg i.v. Q7D × 2); 88% in [1] (3424 2.5 mg/kg i.v. Q7D × 2, 2.5 mg/kg); 52.4% in data set [2] (3424 1.25 mg/kg i.v. Q7D × 2); 91.5% in data set [2] (3424 2.5 mg/kg i.v. Q7D × 2); 101.2% in data set [2] (3424 5 mg/kg i.v. Q7D × 2). Moreover, the TGI is reported as 73% in the data set with A498 xenograft (setting [3]), 87.8% with SNU-16 xenograft (setting [3]) and 96.2% with SNU-16 xenograft (3424 5 mg/kg weekly IV for 4 doses). Besides, the complete regression rate in data set [2] (3424 2.5 mg/kg i.v. Q7D × 2) is recorded as 80%; in data set [2] (3424 5 mg/kg i.v. Q7D × 2), 100%. Further, the body weight loss entry in data set [2] (mouse, in vivo) is reported as “no body weight loss”. Moreover, the “tolerability / body weight loss during treatment” value in the data set on A498 xenograft (A498 model, data not shown) is “no significant body weight loss”; in the data set on SNU-16 xenograft (SNU-16 model, data not shown), “no significant body weight loss”.
